Earlier results in US20050249806A1, “Combination of proton pump inhibitor, buffering agent, and nonsteroidal anti-inflammatory drug” (Santarus, Inc., priority 2004, published 2005).

Conditions: pharmacokinetic half-life

SMILES | half-life
CC(C(=O)O)c1ccc(-c2ccccc2)c(F)c1 (stereo not shown) [flurbiprofen] | about 6 hours
Cc1cccc(Nc2ccccc2C(=O)O)c1C [mefenamic acid] | up to 4 hours
COc1ccc2cc(CCC(C)=O)ccc2c1 [nabumetone] | 22 to 30 h
O=C(O)CCc1nc(-c2ccccc2)c(-c2ccccc2)o1 [oxaprozin] | 42 to 50 h

Continued, values first:

half-life | SMILES
about 7 hours | CCc1cccc2c3c([nH]c12)C(CC)(CC(=O)O)OCC3 (stereo not shown) [etodolac]
8 to 9 h | O=C(c1ccccc1)c1ccc2n1CCC2C(=O)O (stereo not shown) [ketorolac]

Conditions: not given

SMILES | water solubility
COc1ccc2[nH]c([S+]([O-])Cc3ncc(C)c(OC)c3C)nc2c1 (stereo not shown) [omeprazole] | poor water solubility
